Source: the kinase profiling compilation of Christmann-Franck et al. (2016)
Blank lines part the entries; values can stand above or below the compound they belong to.

Legend:
[1] = target: TLK2 (human) (UniProt Q86UE8); test: KINOMEscan competition binding; conditions: compound 10.0 µM
[2] = target: PIM2 (human) (UniProt Q9P1W9); test: KINOMEscan competition binding; conditions: compound 10.0 µM
[3] = target: MAPK9 (human) (UniProt P45984); test: KINOMEscan competition binding; conditions: compound 10.0 µM
[4] = target: MAPK8 (human) (UniProt P45983); test: KINOMEscan competition binding; conditions: compound 10.0 µM
[5] = target: MAPK12 (human) (UniProt P53778); test: KINOMEscan competition binding; conditions: compound 10.0 µM
[6] = target: MYLK4 (human) (UniProt Q86YV6); test: KINOMEscan competition binding; conditions: compound 10.0 µM
[7] = target: PLK4 (human) (UniProt O00444); test: KINOMEscan competition binding; conditions: compound 10.0 µM
PLK4 (human), sequence (O00444 whole entry, looked up): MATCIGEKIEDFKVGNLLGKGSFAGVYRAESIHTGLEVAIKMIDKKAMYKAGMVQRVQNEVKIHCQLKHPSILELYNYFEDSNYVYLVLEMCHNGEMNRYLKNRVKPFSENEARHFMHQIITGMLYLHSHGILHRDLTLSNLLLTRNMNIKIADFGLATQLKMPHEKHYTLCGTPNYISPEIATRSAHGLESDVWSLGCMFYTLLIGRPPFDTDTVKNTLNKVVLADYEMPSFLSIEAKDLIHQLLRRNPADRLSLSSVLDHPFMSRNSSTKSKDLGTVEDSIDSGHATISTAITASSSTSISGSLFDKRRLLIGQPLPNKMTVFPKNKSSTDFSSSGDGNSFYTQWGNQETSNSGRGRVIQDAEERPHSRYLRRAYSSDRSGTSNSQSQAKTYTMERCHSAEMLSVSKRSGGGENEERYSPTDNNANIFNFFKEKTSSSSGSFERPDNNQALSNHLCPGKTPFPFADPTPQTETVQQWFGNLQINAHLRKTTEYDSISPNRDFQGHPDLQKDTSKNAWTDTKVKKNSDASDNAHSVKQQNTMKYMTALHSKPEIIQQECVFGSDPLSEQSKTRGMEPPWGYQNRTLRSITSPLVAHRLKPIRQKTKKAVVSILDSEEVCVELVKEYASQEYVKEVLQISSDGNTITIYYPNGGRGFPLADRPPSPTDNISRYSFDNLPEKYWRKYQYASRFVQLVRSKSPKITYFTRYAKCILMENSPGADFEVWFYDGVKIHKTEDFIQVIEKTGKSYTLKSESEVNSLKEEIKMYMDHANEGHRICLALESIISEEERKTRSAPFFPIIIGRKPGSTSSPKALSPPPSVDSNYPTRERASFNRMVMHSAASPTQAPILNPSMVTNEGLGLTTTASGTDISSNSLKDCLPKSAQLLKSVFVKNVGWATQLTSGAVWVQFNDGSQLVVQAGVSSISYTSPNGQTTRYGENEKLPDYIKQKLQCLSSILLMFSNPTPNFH

[8] = target: CDK16 (human) (UniProt Q00536); test: KINOMEscan competition binding; conditions: compound 10.0 µM
[9] = target: CDK7 (human) (UniProt P50613); test: KINOMEscan competition binding; conditions: compound 10.0 µM
CDK7 (human), sequence (P50613 whole entry, looked up): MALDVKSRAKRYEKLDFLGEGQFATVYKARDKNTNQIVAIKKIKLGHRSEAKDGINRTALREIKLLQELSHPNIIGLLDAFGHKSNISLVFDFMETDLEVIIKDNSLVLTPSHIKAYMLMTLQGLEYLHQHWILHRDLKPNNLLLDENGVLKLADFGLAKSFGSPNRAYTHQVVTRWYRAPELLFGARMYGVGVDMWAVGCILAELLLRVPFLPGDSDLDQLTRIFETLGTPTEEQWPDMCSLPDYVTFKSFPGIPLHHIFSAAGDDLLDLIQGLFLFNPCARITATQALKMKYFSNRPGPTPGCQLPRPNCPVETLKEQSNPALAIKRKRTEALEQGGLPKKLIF

[10] = target: CSK (human) (UniProt P41240); test: KINOMEscan competition binding; conditions: compound 10.0 µM
[11] = target: HIPK1 (human) (UniProt Q86Z02); test: KINOMEscan competition binding; conditions: compound 10.0 µM
[12] = target: RPS6KA1 KD2 (human) (UniProt Q15418); test: KINOMEscan competition binding; conditions: compound 10.0 µM
RPS6KA1 KD2 (human), sequence (Q15418 whole entry, looked up): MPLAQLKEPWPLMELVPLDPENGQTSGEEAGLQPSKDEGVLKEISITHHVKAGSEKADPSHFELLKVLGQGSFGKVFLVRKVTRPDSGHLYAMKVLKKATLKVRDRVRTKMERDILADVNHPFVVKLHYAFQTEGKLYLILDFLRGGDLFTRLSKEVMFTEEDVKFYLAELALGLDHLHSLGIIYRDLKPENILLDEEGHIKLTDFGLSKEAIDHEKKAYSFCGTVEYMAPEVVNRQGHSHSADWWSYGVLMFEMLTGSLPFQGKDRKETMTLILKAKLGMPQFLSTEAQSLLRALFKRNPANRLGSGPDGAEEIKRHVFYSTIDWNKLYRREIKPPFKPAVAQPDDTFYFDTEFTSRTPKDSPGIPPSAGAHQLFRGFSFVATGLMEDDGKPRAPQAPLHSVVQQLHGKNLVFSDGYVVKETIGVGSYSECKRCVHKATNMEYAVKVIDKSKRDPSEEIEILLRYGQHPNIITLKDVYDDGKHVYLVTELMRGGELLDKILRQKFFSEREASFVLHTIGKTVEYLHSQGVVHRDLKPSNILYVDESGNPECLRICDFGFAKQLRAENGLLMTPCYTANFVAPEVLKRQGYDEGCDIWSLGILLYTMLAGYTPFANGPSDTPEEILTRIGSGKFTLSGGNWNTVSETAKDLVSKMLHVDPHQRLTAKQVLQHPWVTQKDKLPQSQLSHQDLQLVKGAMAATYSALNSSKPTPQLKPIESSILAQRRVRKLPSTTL

[13] = target: MAPK10 (human) (UniProt P53779); test: KINOMEscan competition binding; conditions: compound 10.0 µM
[14] = target: TTK (human) (UniProt P33981); test: KINOMEscan competition binding; conditions: compound 10.0 µM
TTK (human), sequence (P33981 whole entry, looked up): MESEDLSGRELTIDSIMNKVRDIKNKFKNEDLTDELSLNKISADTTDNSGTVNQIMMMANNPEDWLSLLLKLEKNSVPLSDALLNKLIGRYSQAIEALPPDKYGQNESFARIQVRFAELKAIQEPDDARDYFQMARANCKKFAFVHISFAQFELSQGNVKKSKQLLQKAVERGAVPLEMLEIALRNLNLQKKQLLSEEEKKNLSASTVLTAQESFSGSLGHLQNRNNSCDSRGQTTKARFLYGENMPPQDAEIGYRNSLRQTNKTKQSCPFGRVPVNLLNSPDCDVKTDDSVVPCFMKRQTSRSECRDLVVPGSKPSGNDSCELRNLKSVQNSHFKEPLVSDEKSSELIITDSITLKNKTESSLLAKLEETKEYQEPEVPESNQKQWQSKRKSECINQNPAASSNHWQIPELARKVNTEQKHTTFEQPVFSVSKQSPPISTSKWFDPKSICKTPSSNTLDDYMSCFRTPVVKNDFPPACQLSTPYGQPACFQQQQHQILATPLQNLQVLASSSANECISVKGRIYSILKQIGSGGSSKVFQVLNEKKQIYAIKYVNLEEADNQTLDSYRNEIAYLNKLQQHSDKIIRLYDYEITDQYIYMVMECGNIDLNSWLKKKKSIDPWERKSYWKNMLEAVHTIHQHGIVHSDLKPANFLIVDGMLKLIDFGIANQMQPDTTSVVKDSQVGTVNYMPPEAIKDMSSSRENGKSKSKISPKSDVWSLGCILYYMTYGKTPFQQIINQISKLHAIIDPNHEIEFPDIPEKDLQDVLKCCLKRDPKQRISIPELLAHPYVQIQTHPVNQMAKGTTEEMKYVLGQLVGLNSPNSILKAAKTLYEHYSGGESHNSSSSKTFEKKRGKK

[15] = target: TAOK1 (human) (UniProt Q7L7X3); test: KINOMEscan competition binding; conditions: compound 10.0 µM
[16] = target: PIM1 (human) (UniProt P11309); test: KINOMEscan competition binding; conditions: compound 10.0 µM
PIM1 (human), sequence (P11309 whole entry, looked up): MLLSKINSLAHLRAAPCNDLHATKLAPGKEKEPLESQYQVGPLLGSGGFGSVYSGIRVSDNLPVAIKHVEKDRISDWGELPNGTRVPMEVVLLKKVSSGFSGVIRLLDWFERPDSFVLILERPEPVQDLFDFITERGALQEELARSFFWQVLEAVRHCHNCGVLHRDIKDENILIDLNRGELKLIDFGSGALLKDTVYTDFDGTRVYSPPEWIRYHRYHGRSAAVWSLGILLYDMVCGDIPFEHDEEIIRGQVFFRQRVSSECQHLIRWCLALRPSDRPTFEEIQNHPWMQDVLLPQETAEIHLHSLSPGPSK

[17] = target: MAP2K3 (human) (UniProt P46734); test: KINOMEscan competition binding; conditions: compound 10.0 µM
MAP2K3 (human), sequence (P46734 whole entry, looked up): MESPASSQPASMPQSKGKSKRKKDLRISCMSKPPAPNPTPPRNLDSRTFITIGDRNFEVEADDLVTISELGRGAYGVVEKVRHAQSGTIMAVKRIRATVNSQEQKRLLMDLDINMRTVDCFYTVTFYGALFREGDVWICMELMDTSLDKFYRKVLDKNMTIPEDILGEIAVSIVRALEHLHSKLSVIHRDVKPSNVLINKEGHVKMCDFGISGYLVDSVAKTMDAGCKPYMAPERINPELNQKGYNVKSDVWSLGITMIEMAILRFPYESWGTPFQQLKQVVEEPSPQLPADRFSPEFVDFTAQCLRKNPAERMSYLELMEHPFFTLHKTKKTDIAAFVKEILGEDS

[18] = target: CLK2 (human) (UniProt P49760); test: KINOMEscan competition binding; conditions: compound 10.0 µM
[19] = target: MAPK14 (human) (UniProt Q16539); test: KINOMEscan competition binding; conditions: compound 10.0 µM
[20] = target: PIM3 (human) (UniProt Q86V86); test: KINOMEscan competition binding; conditions: compound 10.0 µM
[21] = target: MAPK15 (human) (UniProt Q8TD08); test: KINOMEscan competition binding; conditions: compound 10.0 µM
[22] = target: PIM2 (human) (UniProt Q9P1W9); test: SelectScreen, TR FRET
[23] = target: PIM1 (human) (UniProt P11309); test: SelectScreen, TR FRET
[24] = target: PLK1 (human) (UniProt P53350); test: KINOMEscan competition binding; conditions: compound 10.0 µM
[25] = target: DCLK2 (human) (UniProt Q8N568); test: KINOMEscan competition binding; conditions: compound 10.0 µM
[26] = target: PTK2B (human) (UniProt Q14289); test: KINOMEscan competition binding; conditions: compound 10.0 µM
[27] = target: DCLK1 (human) (UniProt O15075); test: KINOMEscan competition binding; conditions: compound 10.0 µM
DCLK1 (human), sequence (O15075 whole entry, looked up): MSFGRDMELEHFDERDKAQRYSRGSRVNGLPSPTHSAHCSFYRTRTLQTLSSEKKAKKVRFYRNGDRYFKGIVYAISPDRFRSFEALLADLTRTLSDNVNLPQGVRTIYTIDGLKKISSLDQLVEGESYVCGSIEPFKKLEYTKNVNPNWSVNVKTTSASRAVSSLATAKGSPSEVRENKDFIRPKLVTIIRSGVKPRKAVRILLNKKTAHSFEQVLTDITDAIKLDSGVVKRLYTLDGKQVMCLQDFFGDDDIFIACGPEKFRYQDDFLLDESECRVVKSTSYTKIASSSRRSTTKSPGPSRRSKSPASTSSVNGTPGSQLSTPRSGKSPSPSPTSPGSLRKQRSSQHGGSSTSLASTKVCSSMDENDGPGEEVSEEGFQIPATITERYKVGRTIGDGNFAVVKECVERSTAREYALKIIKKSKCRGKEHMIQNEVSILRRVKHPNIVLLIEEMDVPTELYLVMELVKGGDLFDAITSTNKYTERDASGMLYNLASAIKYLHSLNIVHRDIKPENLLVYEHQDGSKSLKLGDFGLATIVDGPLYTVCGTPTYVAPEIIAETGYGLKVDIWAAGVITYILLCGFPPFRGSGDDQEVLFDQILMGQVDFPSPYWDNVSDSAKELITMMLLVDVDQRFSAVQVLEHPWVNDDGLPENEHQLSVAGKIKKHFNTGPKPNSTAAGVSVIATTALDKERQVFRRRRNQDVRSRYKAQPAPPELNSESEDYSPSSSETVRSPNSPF

[28] = target: DAPK1 (human) (UniProt P53355); test: KINOMEscan competition binding; conditions: compound 10.0 µM
[29] = target: RPS6KA2 KD2 (human) (UniProt Q15349); test: KINOMEscan competition binding; conditions: compound 10.0 µM
[30] = target: ALK (human) (UniProt Q9UM73); test: KINOMEscan competition binding; conditions: compound 10.0 µM
[31] = target: STK33 (human) (UniProt Q9BYT3); test: KINOMEscan competition binding; conditions: compound 10.0 µM
[32] = target: INSR (human) (UniProt P06213); test: KINOMEscan competition binding; conditions: compound 10.0 µM
[33] = target: SLK (human) (UniProt Q9H2G2); test: KINOMEscan competition binding; conditions: compound 10.0 µM
[34] = target: DAPK2 (human) (UniProt Q9UIK4); test: KINOMEscan competition binding; conditions: compound 10.0 µM
DAPK2 (human), sequence (Q9UIK4 whole entry, looked up): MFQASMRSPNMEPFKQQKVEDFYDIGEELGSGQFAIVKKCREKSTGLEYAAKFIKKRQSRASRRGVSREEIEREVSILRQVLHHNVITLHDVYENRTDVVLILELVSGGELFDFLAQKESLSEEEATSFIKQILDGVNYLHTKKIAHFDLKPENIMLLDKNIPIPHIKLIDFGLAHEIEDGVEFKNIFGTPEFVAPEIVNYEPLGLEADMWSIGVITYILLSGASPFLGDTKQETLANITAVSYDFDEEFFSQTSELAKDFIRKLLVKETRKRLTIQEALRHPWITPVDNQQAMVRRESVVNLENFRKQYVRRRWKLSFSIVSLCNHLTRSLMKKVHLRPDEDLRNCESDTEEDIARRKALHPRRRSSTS

[35] = target: RPS6KA6 KD2 (human) (UniProt Q9UK32); test: KINOMEscan competition binding; conditions: compound 10.0 µM
[36] = target: DAPK3 (human) (UniProt O43293); test: KINOMEscan competition binding; conditions: compound 10.0 µM
[37] = target: GAK (human) (UniProt O14976); test: KINOMEscan competition binding; conditions: compound 10.0 µM
[38] = target: PTK2 (human) (UniProt Q05397); test: KINOMEscan competition binding; conditions: compound 10.0 µM
[39] = target: PLK3 (human) (UniProt Q9H4B4); test: KINOMEscan competition binding; conditions: compound 10.0 µM
[40] = target: MYLK (human) (UniProt Q15746); test: KINOMEscan competition binding; conditions: compound 10.0 µM
[41] = target: INSRR (human) (UniProt P14616); test: KINOMEscan competition binding; conditions: compound 10.0 µM

PIM2 (human), sequence (Q9P1W9 whole entry, looked up): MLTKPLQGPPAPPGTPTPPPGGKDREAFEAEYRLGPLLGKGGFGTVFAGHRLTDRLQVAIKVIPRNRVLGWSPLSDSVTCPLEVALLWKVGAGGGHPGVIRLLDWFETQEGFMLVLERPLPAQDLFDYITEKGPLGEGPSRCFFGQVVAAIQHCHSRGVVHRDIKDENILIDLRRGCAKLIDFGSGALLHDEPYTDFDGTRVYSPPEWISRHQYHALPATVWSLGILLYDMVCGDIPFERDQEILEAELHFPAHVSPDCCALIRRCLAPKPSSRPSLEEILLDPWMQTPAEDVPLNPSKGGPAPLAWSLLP

kinase still bound, per cent of control [1]: 33% | kinase still bound, per cent of control [2]: 3.4% | kinase still bound, per cent of control [3]: 8.1% | kinase still bound, per cent of control [4]: 33% | kinase still bound, per cent of control [5]: 33% | kinase still bound, per cent of control [6]: 24% | kinase still bound, per cent of control [7]: 0.7% | kinase still bound, per cent of control [8]: 0.45% | kinase still bound, per cent of control [9]: 22% | kinase still bound, per cent of control [10]: 31% | kinase still bound, per cent of control [11]: 4.3% | kinase still bound, per cent of control [12]: 31% | kinase still bound, per cent of control [13]: 22% | kinase still bound, per cent of control [14]: 9% | kinase still bound, per cent of control [15]: 9.2% | kinase still bound, per cent of control [16]: 3.5% | kinase still bound, per cent of control [17]: 16% | kinase still bound, per cent of control [18]: 33% | kinase still bound, per cent of control [19]: 21% | kinase still bound, per cent of control [20]: 2.9% | IC50 [22]: 6.45 µM | IC50 [23]: 1.89 µM
Structure (SMILES): CN(C)C1=NC(=O)/C(=C/c2ccc(-c3ccc(S(N)(=O)=O)cc3)o2)S1
kinase still bound, per cent of control [21]: 19%

kinase still bound, per cent of control [24]: 2% | kinase still bound, per cent of control [25]: 31% | kinase still bound, per cent of control [26]: 12% | kinase still bound, per cent of control [27]: 11% | kinase still bound, per cent of control [28]: 8.2% | kinase still bound, per cent of control [29]: 9.6% | kinase still bound, per cent of control [30]: 14% | kinase still bound, per cent of control [31]: 5.6% | kinase still bound, per cent of control [7]: 8% | kinase still bound, per cent of control [32]: 30% | kinase still bound, per cent of control [33]: 20% | kinase still bound, per cent of control [12]: 15% | kinase still bound, per cent of control [34]: 24% | kinase still bound, per cent of control [35]: 22% | kinase still bound, per cent of control [36]: 9.9% | kinase still bound, per cent of control [14]: 0.85% | kinase still bound, per cent of control [37]: 2.7% | kinase still bound, per cent of control [38]: 7.1% | kinase still bound, per cent of control [39]: 4.1% | kinase still bound, per cent of control [40]: 3% | kinase still bound, per cent of control [41]: 23%
Structure (SMILES): COc1cc(C(=O)NC2CCN(C)CC2)ccc1Nc1ncc2c(n1)N(C1CCC(O)CC1)CCC(=O)N2C (centres undefined)
